Here are results for six compounds from ChEMBL document CHEMBL1129009, “New aza-thioxanthones: Synthesis and cytotoxicity” (Bioorg Med Chem Lett, 1996).

Holding throughout (format): functional, cell-based
Common to all, as to settings: Homo sapiens

One assay has as its system HOP-92. The experiment in a line: Compound was evaluated for cytotoxicity against non small lung cancer HOP-92 cell line.
A further assay concerns MOLT-4. The experiment in a line: Compound was evaluated for cytotoxicity against leukemic MOLT-4 cell lines.
Another assay concerns MCF7. The experiment in a line: Compound was evaluated for cytotoxicity against breast cancer MCF-7 cell lines.
Another assay has as its system SK-OV-3. The experiment in a line: Compound was evaluated for cytotoxicity against ovarian carcinoma […] cell line.
The next assay relates to SW-620. Briefly: Compound was evaluated for cytotoxicity against colon SW-620 cell line.

Regarding `O=C(CN1CCCCC1)Nc1ccc2sc3ccccc3c(=O)c2n1`, the IC50 in the assay with HOP-92 came to 15.1 µM; with MOLT-4 it was 2.69 µM; with MCF7, 19.4 µM; in the assay with SK-OV-3, 21.4 µM; with SW-620, 5.42 µM.
With `O=C(CCN1CCOCC1)Nc1ccc2sc3ccccc3c(=O)c2n1`, the IC50 is 45.3 µM in the assay on HOP-92, 49.8 µM in the assay on MCF7, 47.6 µM in the assay with SK-OV-3 and 27.3 µM in the assay with SW-620.
Consider `CCN(CC)CCC(=O)Nc1ccc2sc3ccccc3c(=O)c2n1`, for which the IC50 with MOLT-4 came out at 7.77 µM; in the assay with MCF7, 13.3 µM; with SK-OV-3, 20.5 µM; in the assay with SW-620, 12 µM.
Take `O=C(CCN1CCCCC1)Nc1ccc2sc3ccccc3c(=O)c2n1`: the IC50 worked out at 0.41 µM with HOP-92; 2.56 µM with MOLT-4; 15.9 µM in the assay on MCF7; 23.2 µM in the assay with SK-OV-3; 8.31 µM with SW-620.
Consider `O=C(CCN1CCCC1)Nc1ccc2sc3ccccc3c(=O)c2n1`, for which the IC50 with HOP-92 was 18.1 µM; in the assay on MOLT-4, 3.42 µM; with MCF7, 17 µM; in the assay on SK-OV-3 it was 5.23 µM; with SW-620 it was 15.5 µM.
The matching figures for `O=C(CN1CCCC1)Nc1ccc2sc3ccccc3c(=O)c2n1`: 27.3 µM, 1.91 µM, 27.2 µM, 20.6 µM and 4.96 µM.
